Assay results: patent publication US11077090B2, “Compounds and compositions and uses thereof” (Sunovion Pharmaceuticals Inc., priority 2016, dated 2021)

Test system: compound-treated mice
Test: Neuropharmacological assay (SmartCube): behavioral activity signature and minimal effective dose
Format: in vivo
Conditions: for minimal effective dose: Mus musculus, ip, MED = dose having 50% or more total activity, read-out: Potency: minimal effective dose (MED), binned; for AD: ADHD (probability of activity signature) / AG: analgesic (probability of activity signature) / AX: anxiolytic (probability of activity signature) / CE: cognitive enhancer (probability of activity signature) / DP: anti-depressant (probability of activity signature) / MS: mood stabilizer (probability of activity signature) / PS: anti-psychotic (probability of activity signature) / SD: sedative hypnotic (probability of activity signature) / UN: uncharacterized CNS activity (probability of activity signature): i.p. 15 min before test, most efficacious dose(s)
How it was run: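 Video-recorded behavior is compared algorithmically against a reference-compound database, yielding class probabilities (best dose reported). Compounds given i.p. in NMP/PEG/propylene glycol 15 min pre-test at 3 doses; potency as MED, the dose (mpk, range usually 0.3–30) reaching ≥50% total activity.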

Structure (SMILES)	minimal effective dose	AD: ADHD (probability of activity signature)	AG: analgesic (probability of activity signature)	AX: anxiolytic (probability of activity signature)	CE: cognitive enhancer (probability of activity signature)	DP: anti-depressant (probability of activity signature)	MS: mood stabilizer (probability of activity signature)	PS: anti-psychotic (probability of activity signature)	SD: sedative hypnotic (probability of activity signature)	UN: uncharacterized CNS activity (probability of activity signature)
Cc1cccc2c1[C@H](C)OC[C@@H]2N [Example 255]	10 to 30 mg/kg	+ (LOQ ≤ + <5%)	+ (LOQ ≤ + <5%)	+ (LOQ ≤ + <5%)	+ (LOQ ≤ + <5%)	+ (LOQ ≤ + <5%)	+ (LOQ ≤ + <5%)	+ (LOQ ≤ + <5%)	++ (5% ≤ ++ <25%)	++ (5% ≤ ++ <25%)
CC[C@@H]1OCc2ccccc2[C@@H]1NC.Cl [Example 258]	3 to 10 mg/kg	+ (LOQ ≤ + <5%)	+ (LOQ ≤ + <5%)	+ (LOQ ≤ + <5%)	+ (LOQ ≤ + <5%)	++ (5% ≤ ++ <25%)	++ (5% ≤ ++ <25%)	+ (LOQ ≤ + <5%)	++ (5% ≤ ++ <25%)	+ (LOQ ≤ + <5%)
CC[C@H]1OCc2ccccc2[C@@H]1NC.Cl [Example 259]	10 to 30 mg/kg	+ (LOQ ≤ + <5%)	+ (LOQ ≤ + <5%)	+ (LOQ ≤ + <5%)	+ (LOQ ≤ + <5%)	++ (5% ≤ ++ <25%)	+ (LOQ ≤ + <5%)	+ (LOQ ≤ + <5%)	+++ (25% ≤ +++ <50%)	++ (5% ≤ ++ <25%)
CCCN[C@@H]1COCc2ccccc21.Cl [Example 262]	10 to 30 mg/kg	+ (LOQ ≤ + <5%)	+ (LOQ ≤ + <5%)	+ (LOQ ≤ + <5%)	+ (LOQ ≤ + <5%)	++ (5% ≤ ++ <25%)	+ (LOQ ≤ + <5%)	+ (LOQ ≤ + <5%)	++ (5% ≤ ++ <25%)	++ (5% ≤ ++ <25%)
C#CCN[C@@H]1COCc2ccccc21.Cl [Example 263]	< 3 mg/kg	+ (LOQ ≤ + <5%)	+ (LOQ ≤ + <5%)	+ (LOQ ≤ + <5%)	+ (LOQ ≤ + <5%)	+ (LOQ ≤ + <5%)	+ (LOQ ≤ + <5%)	+ (LOQ ≤ + <5%)	++ (5% ≤ ++ <25%)	+ (LOQ ≤ + <5%)
CCCN[C@@H]1c2ccccc2CO[C@H]1C.Cl [Example 264]	3 to 10 mg/kg	++ (5% ≤ ++ <25%)	+ (LOQ ≤ + <5%)	++ (5% ≤ ++ <25%)	+ (LOQ ≤ + <5%)	++ (5% ≤ ++ <25%)	++ (5% ≤ ++ <25%)	+++ (25% ≤ +++ <50%)	++ (5% ≤ ++ <25%)	+ (LOQ ≤ + <5%)
CCCN[C@H]1COCc2ccccc21.Cl [Example 265]	3 to 10 mg/kg	+ (LOQ ≤ + <5%)	+ (LOQ ≤ + <5%)	+ (LOQ ≤ + <5%)	+ (LOQ ≤ + <5%)	++ (5% ≤ ++ <25%)	+ (LOQ ≤ + <5%)	+ (LOQ ≤ + <5%)	++ (5% ≤ ++ <25%)	+ (LOQ ≤ + <5%)
C#CCN[C@H]1COCc2ccccc21.Cl [Example 266]	3 to 10 mg/kg	+ (LOQ ≤ + <5%)	+ (LOQ ≤ + <5%)	+ (LOQ ≤ + <5%)	+ (LOQ ≤ + <5%)	+ (LOQ ≤ + <5%)	++ (5% ≤ ++ <25%)	+ (LOQ ≤ + <5%)	++ (5% ≤ ++ <25%)	+ (LOQ ≤ + <5%)
C#CCN[C@@H]1c2ccccc2CO[C@H]1C.Cl [Example 267]	< 3 mg/kg	+ (LOQ ≤ + <5%)	+ (LOQ ≤ + <5%)	+ (LOQ ≤ + <5%)	+ (LOQ ≤ + <5%)	++ (5% ≤ ++ <25%)	++ (5% ≤ ++ <25%)	+ (LOQ ≤ + <5%)	++ (5% ≤ ++ <25%)	++ (5% ≤ ++ <25%)
CCCN[C@H]1c2ccccc2CO[C@@H]1C.Cl [Example 268]	3 to 10 mg/kg	++ (5% ≤ ++ <25%)	+ (LOQ ≤ + <5%)	++ (5% ≤ ++ <25%)	+ (LOQ ≤ + <5%)	+ (LOQ ≤ + <5%)	++ (5% ≤ ++ <25%)	+++ (25% ≤ +++ <50%)	++ (5% ≤ ++ <25%)	++ (5% ≤ ++ <25%)
CCCN[C@@H]1c2ccccc2CO[C@@H]1C.Cl [Example 269]	3 to 10 mg/kg	+ (LOQ ≤ + <5%)	+ (LOQ ≤ + <5%)	+ (LOQ ≤ + <5%)	+ (LOQ ≤ + <5%)	++ (5% ≤ ++ <25%)	++ (5% ≤ ++ <25%)	+ (LOQ ≤ + <5%)	++ (5% ≤ ++ <25%)	++ (5% ≤ ++ <25%)
C#CCN[C@H]1c2ccccc2CO[C@@H]1C.Cl [Example 270]	< 3 mg/kg	++ (5% ≤ ++ <25%)	+ (LOQ ≤ + <5%)	++ (5% ≤ ++ <25%)	+ (LOQ ≤ + <5%)	++ (5% ≤ ++ <25%)	++++ (50% ≤ ++++)	+ (LOQ ≤ + <5%)	++ (5% ≤ ++ <25%)	++ (5% ≤ ++ <25%)
C#CCN[C@H]1c2ccccc2CO[C@H]1C.Cl [Example 271]	3 to 10 mg/kg	++ (5% ≤ ++ <25%)	+ (LOQ ≤ + <5%)	++ (5% ≤ ++ <25%)	+ (LOQ ≤ + <5%)	++ (5% ≤ ++ <25%)	+++ (25% ≤ +++ <50%)	+ (LOQ ≤ + <5%)	++ (5% ≤ ++ <25%)	++ (5% ≤ ++ <25%)
CCCN[C@H]1c2ccccc2CO[C@H]1C.Cl [Example 272]	3 to 10 mg/kg	+ (LOQ ≤ + <5%)	+ (LOQ ≤ + <5%)	++ (5% ≤ ++ <25%)	+ (LOQ ≤ + <5%)	+ (LOQ ≤ + <5%)	++ (5% ≤ ++ <25%)	++ (5% ≤ ++ <25%)	++ (5% ≤ ++ <25%)	++ (5% ≤ ++ <25%)
CCN(C)C(=O)Oc1ccc2c(c1)C(N)COC2.Cl (stereo not drawn) [Example 277, 4-Aminoisochroman-6-yl ethyl(methyl)carbamate hydrochloride]	> 30 mg/kg	+ (LOQ ≤ + <5%)	+ (LOQ ≤ + <5%)	+ (LOQ ≤ + <5%)	+ (LOQ ≤ + <5%)	+ (LOQ ≤ + <5%)	+ (LOQ ≤ + <5%)	+ (LOQ ≤ + <5%)	+ (LOQ ≤ + <5%)	+ (LOQ ≤ + <5%)
